“Also recorded” adds a separate entry of the source. Structures can show the parent of a compound that is named as a salt.
Legend:
Type in all cases: physicochemical
[1] = Slurry experiments at room temperature (thermodynamic stability of crystal forms, X-ray diffraction); details: for Slurry Result: 7 days, room temperature, form by XRD
Description: Slurry experiments of Form I were performed at room temperature to verify if Form I is the thermodynamic crystal form. 0.050 g of Form I was suspended in 2 ml of solvent and stirred for 1 week. The sample was filtered and analyzed by X-ray diffraction. In the large majority of the experiments, Form I converts into Form II. […] By 1,4-Dioxane, a new crystal form was obtained named Form V. See Table 46 for the Form I slurries results (7 days).
Further slurry experiments of Form I were performed at room temperature using 0.5 g of powder in 10 mL of solvent to confirm the results obtained even in large scale.
0.050 g of Form I were suspended in 2 ml of solvent and stirred at room temperature for 4 weeks (30 days). The sample was filtered and analyzed by X-ray diffraction. By 1,4-Dioxane, Form V was obtained. By tetrahydrofuran, Form II and Form VII were obtained. […] See Table 47 for the Form I slurries results (30 days).
Slurry experiments of mixtures of Form I and Form II were performed at room temperature to verify their thermodynamic stability. 0.040 g of Form I+0.040 g of Form II were suspended in 4 ml of solvent and stirred for 1 week (7 days). The samples were filtered and analyzed by X-ray diffraction. By 1,4-Dioxane, Form V was obtained. […] See Table 48 for the Form I+Form II slurries results (7 days).
Slurry experiments of mixtures of Form II and Form III were performed at room temperature to verify their thermodynamic stability. 0.040 g of Form II+0.040 g of Form III were suspended in 4 ml of solvent and stirred for 1 week (7 days). The samples were filtered and analyzed by X-ray diffraction. By 1,4-Dioxane, Form V was obtained. […] See Table 49 for the Form II+Form III slurries results (7 days).
Slurry experiments of mixtures of Form II and Form IV were performed at room temperature to verify their thermodynamic stability. 0.040 g of Form II+0.040 g of Form IV were suspended in 4 ml of solvent and stirred for 1 week (7 days). The samples were filtered and analyzed by X-ray diffraction. By 1,4-Dioxane, Form V was obtained. […] See Table 50 for the Form II+Form IV slurries results (7 days).
Slurry experiments of mixtures of Form II and Form V were performed at room temperature to verify their thermodynamic stability. 0.040 g of Form II+0.040 g of Form V were suspended in 4 ml of solvent and stirred for 1 week (7 days). The samples were filtered and analyzed by X-ray diffraction. By 1,4-Dioxane, Form V was obtained. […] See Table 51 for the Form II+Form V slurries results (7 days).
Slurry experiments of mixtures of Form II and Form VI were performed at room temperature to verify their thermodynamic stability. 0.040 g of Form II+0.040 g of Form VI were suspended in 4 ml of solvent and stirred for 1 week (7 days). The samples were filtered and analyzed by X-ray diffraction. By 1,4-Dioxane, Form V was obtained. […] See Table 52 for the Form II+Form VI slurries results (7 days).
Slurry experiments of mixtures of Form II and Form VII were performed at room temperature to verify their thermodynamic stability. 0.040 g of Form II+0.040 g of Form VII were suspended in 4 ml of solvent and stirred for 1 week (7 days). The samples were filtered and analyzed by X-ray diffraction. By 1,4-Dioxane, Form V was obtained. […] See Table 53 for the Form II+Form VII slurries results (7 days).

[2] = Slurries in 2-propanol at room temperature, 50° C. and 80° C.; details: form by XRD
Description: 0.050 g of Form I were suspended in 4 ml of solvent and stirred at room temperature. for 1 week (7 days). The sample was filtered and analyzed by X-ray diffraction.
0.040 g of Form I+0.040 g of Form II were suspended in 4 ml of solvent and stirred at room temperature for 1 week (7 days). The sample was filtered and analyzed by X-ray diffraction experiments.
0.050 g of Form II were suspended in 4 ml of solvent and stirred at room temperature for 1 week (7 days). The sample was filtered and analyzed by X-ray diffraction experiments.
0.050 g of Form I were suspended in 4 ml of solvent and stirred at 50° C. for 1 Week (7 days). The sample was filtered and analyzed by X-ray diffraction experiments.
0.040 g of Form I+0.040 g of Form II were suspended in 4 ml of solvent and stirred at 50° C. for 1 week (7 days). The sample was filtered and analyzed by X-ray diffraction experiments.
Form I+Form II were suspended in solvent and stirred at 80° C. for 14 hours. The sample was filtered and analyzed by X-ray diffraction experiments. […] Slurry in 2-propanol at 80° C. is an atypical experiment because if we consider the boiling point of the solvent, it could be defined as a combination between a slurry and precipitation experiment. Form I was obtained during the precipitation from supersaturated solution by 2-propanol. However the high temperature and the reflux produce the energetic conditions needed by the stable crystal form (Form II) to convert to the metastable crystal form (Form I).

[3] = Stability tests on bupropion hydrobromide polymorphs in humidity chamber (XRD pattern); details: 40° C., 85% R.H., open sample-holder
Description: Stability tests were performed on bupropion hydrobromide Form I, Form II, Form III, Form IV, Form V and Form VI. The powders were stored in a controlled atmosphere (85% R.H.) at 40° C. Form I and Form II were stored for 7 and 30 days respectively, while the other forms were stored only for 30 days. The sample was positioned on the sample-holder which was introduced, without any cover, into the humidity chamber at 40° C. The layer of the sample on the sample-holder was about 0.5 cm.
In addition, stability tests were performed on bupropion hydrobromide Form VII.

[4] = TGA and DSC characterization; details: for TGA (mass change): successive mass-loss steps listed per polymorph; for DSC (onset ° C.): successive thermal events listed per polymorph
Description: The PXRD diffraction patterns were obtained on X-ray powder diffraction PANalytical X′pert Pro equipped with X′Celerator, in a measurement range between 3 and 40 2 theta. All the DSC experiments were performed with a DSC 7 Perkin Elmer instrument in a temperature range between 25° C. and 250° C. with a heating rate of 10° C./min.
All the TGA experiments were conducted with a TGA 7 Perkin Elmer instrument in a temperature range between 39° C. and 310° C. with a heating rate of 10° C./min.
PXRD, DSC, TGA and IR analyses were obtained for Bupropion Hydrobromide Polymorph Form I, Form II, Form III, Form IV, Form V, Form VI, and Form VII. PXRD analyses were obtained for the amorphous form. With respect to the PXRD analyses, the Peak List is shown for Form I, Form II, Form III, Form IV, Form V, Form VI, Form VII and the amorphous form in Table 56, Table 57, Table 58, Table 59, Table 60, Table 61, Table 62 and Table 63 respectively.

[5] = Stability tests on bupropion hydrobromide polymorphs in humidity chamber (XRD pattern); details: 28 days; 25° C.; 75% R.H.
[6] = Release of bupropion base from the salt; details: 150 mg of the salt tested
Description: It was previously observed that when 150 mg of bupropion HCl was tested for its release of bupropion, the base value that was released was 130 mg. However, when 150 mg of bupropion HBr was tested, the base value released was only 112 mg. Thus, the amount of bupropion HBr had to be increased in order to increase the base value from 112 mg to 130 mg, which was the target.

[7] = room temperature, 1 week (7 days)

Br.CC(NC(C)(C)C)C(=O)c1cccc(Cl)c1 (single isomer, unassigned) [Form II]
Thermodynamic stability of the crystal form as shown by slurry experiments [1]: thermodynamically stable crystal form; also recorded: thermodynamic stable form
Slurry result in 2-propanol ([2]; mixture Form I+Form II, 80° C., 14 hours): converted to Form I
Slurry result in 2-propanol [2, 7]: Form II was obtained
XRD pattern / crystal form after storage ([3]; 7 days): did not show modification
XRD pattern / crystal form after storage ([3]; 30 days): did not show modification
TGA (mass change) [4]: −93.35%

Br.CC(NC(C)(C)C)C(=O)c1cccc(Cl)c1 (single isomer, unassigned) [Form VI]
XRD pattern / crystal form after storage ([3]; 30 days): converted into a mixture of Form I+Form II
TGA (mass change) [4]: −97.68%
DSC (onset ° C.) [4]: 235 °C

Br.CC(NC(C)(C)C)C(=O)c1cccc(Cl)c1 (centres unmarked) [Form I + Form II]
Slurry Result ([1]; 1,2-Dimethoxy Ethane): Form II
Slurry Result ([1]; 1,4-Dioxane): Form V
Slurry Result ([1]; Acetone): Form II
Slurry Result ([1]; Diethyl ether): Form II
Slurry Result ([1]; Ethyl acetate): Form II
Slurry Result ([1]; n-Hexan): Form II
Slurry Result ([1]; p-Xylene): Form II
Slurry result in 2-propanol ([2]; 50° C., 1 week (7 days)): Form II was obtained
Slurry result in 2-propanol [2, 7]: Form II was obtained

Br.CC(NC(C)(C)C)C(=O)c1cccc(Cl)c1 (centres unmarked) [Form II + Form III]
Slurry Result ([1]; 1,2-Dimethoxy Ethane): Form II
Slurry Result ([1]; 1,4-Dioxane): Form V
Slurry Result ([1]; Acetone): Form II
Slurry Result ([1]; Diethyl ether): Form II
Slurry Result ([1]; Ethyl acetate): Form II
Slurry Result ([1]; n-Hexan): Form II
Slurry Result ([1]; p-Xylene): Form II

Br.CC(NC(C)(C)C)C(=O)c1cccc(Cl)c1 (centres unmarked) [Form III]
XRD pattern / crystal form after storage ([3]; 30 days): converted into Form I

Br.CC(NC(C)(C)C)C(=O)c1cccc(Cl)c1 (centres unmarked) [Form IV]
XRD pattern / crystal form after storage ([3]; 30 days): converted into Form I

Br.CC(NC(C)(C)C)C(=O)c1cccc(Cl)c1 (centres unmarked) [Form VII]
DSC (onset ° C.) [4]: 268.7 °C
XRD pattern / crystal form after storage [5]: stable form

Br.CC(NC(C)(C)C)C(=O)c1cccc(Cl)c1 (centres unmarked) [Form V]
XRD pattern / crystal form after storage ([3]; 30 days): converted into Form I
DSC (onset ° C.) [4]: 237.85 °C

CC(NC(C)(C)C)C(=O)c1cccc(Cl)c1 (centres unmarked) [bupropion HCl, reference compound]
base value that was released [6]: 130 mg

Source: patent US8604085B2, “Bupropion hydrobromide polymorphs” (Valeant International Bermuda, priority 2008, dated 2013)
